{"source": "patent US20080107623A1", "about": "“Inhibitors of Hepatitis C Virus” (Bristol-Myers Squibb Company, priority 2006, published 2008)", "key": {"[1]": {"molecular_target": "T1, HCV NS3/4A protease complex, H77 strain (Hepatitis C virus genotype 1a, UniProt P27958, C1454S/C1711G)", "T1 construct": "recombinant HCV NS3/4A protease complex (amino acids 1027 to 1711) for these strains; made in house; host or cells: Escherichia coli BL21 (DE3), pET21b", "T1 sequence (P27958 1027-1711 C1454S/C1711G, one chain of several)": "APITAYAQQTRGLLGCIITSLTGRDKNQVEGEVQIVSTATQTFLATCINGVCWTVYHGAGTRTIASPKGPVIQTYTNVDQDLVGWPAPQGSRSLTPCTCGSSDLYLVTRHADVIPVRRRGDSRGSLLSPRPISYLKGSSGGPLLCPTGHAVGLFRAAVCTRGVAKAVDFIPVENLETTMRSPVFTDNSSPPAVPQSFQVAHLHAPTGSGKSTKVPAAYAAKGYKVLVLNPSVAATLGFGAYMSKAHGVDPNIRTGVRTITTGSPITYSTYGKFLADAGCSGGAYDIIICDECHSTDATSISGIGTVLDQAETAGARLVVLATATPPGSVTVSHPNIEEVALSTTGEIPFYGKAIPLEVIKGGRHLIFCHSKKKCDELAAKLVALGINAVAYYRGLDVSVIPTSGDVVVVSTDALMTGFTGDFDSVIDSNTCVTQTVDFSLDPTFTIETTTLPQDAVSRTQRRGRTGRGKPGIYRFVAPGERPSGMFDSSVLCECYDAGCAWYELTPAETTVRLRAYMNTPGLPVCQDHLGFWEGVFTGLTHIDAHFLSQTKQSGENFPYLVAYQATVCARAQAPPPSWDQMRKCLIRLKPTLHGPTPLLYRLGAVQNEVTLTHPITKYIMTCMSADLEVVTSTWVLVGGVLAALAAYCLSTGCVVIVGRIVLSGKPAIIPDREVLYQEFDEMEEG", "test": "FRET peptide assay to monitor HCV NS3/4A proteolytic activity (H77 strain)", "type": "biochemical, HCV genotype 1a", "conditions": "read-out: IC50 against NS3/4A H77 strain", "from_the_text": "(§1) HCV NS3 protease complexes, derived from the BMS strain, H77 strain or J4L6S strain, were generated, as described below. These purified recombinant proteins were generated for use in a homogeneous assay (see below) to provide an indication of how effective compounds of the present disclosure would be in inhibiting HCV NS3 proteolytic activity.\n(§2) The H77 and J4L6S strains were used for production of recombinant NS3/4A protease complexes. DNA encoding the recombinant HCV NS3/4A protease complex (amino acids 1027 to 1711) for these strains were manipulated as described by P. Gallinari et al. (see Gallinari P, Paolini C, Brennan D, Nardi C, Steinkuhler C, De Francesco R. Biochemistry. 38(17):5620-32, (1999)). Briefly, a three-lysine solubilizing tail was added at the 3′-end of the NS4A coding region. The cysteine in the P1 position of the NS4A-NS4B cleavage site (amino acid 1711) was changed to a glycine to avoid the proteolytic cleavage of the lysine tag. Furthermore, a cysteine to serine mutation was introduced by PCR at amino acid position 1454 to prevent the autolytic cleavage in the NS3 helicase domain. […]"}, "[2]": {"molecular_target": "T2, HCV NS3/4A protease complex, J4L6S strain (Hepatitis C virus genotype 1b, UniProt O92972, C1454S/C1711G)", "T2 construct": "recombinant HCV NS3/4A protease complex (amino acids 1027 to 1711) for these strains; made in house; host or cells: Escherichia coli BL21 (DE3), pET21b", "T2 sequence (O92972 1027-1711 C1454S/C1711G, one chain of several)": "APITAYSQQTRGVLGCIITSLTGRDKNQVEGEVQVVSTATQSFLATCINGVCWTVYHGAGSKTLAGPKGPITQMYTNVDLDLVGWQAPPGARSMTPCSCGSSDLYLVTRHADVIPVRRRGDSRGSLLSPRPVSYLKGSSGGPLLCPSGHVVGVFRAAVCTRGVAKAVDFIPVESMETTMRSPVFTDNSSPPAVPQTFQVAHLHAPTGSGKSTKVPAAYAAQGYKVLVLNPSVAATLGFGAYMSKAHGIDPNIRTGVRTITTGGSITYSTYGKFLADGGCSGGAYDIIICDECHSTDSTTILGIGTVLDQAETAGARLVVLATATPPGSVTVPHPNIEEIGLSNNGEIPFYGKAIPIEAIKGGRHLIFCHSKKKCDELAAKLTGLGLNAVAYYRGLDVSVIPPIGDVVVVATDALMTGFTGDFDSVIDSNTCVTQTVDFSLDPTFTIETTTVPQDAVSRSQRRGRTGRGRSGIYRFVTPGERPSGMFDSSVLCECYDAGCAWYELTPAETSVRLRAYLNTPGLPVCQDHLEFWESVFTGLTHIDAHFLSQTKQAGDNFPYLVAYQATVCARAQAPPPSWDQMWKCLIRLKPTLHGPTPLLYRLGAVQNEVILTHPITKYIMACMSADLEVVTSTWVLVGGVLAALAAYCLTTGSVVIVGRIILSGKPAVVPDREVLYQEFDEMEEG", "test": "FRET peptide assay to monitor HCV NS3/4A proteolytic activity (J4L6S strain)", "type": "biochemical, HCV genotype 1b", "conditions": "read-out: IC50 against NS3/4A J4L6S strain", "from_the_text": "as §1, §2"}}, "data": [{"molecule": "COc1c(O[C@@H]2C[C@H]3C(=O)N[C@]4(C(=O)NS(=O)(=O)C5CC5)C[C@H]4/C=C\\CCCCC[C@H](NC(=O)OC(C)(C)C)C(=O)N3C2)ccc2c(Cl)nccc12", "note": "[Compound 3]", "values": [{"measurement": "IC50", "setting": "[1]", "value": 0.6, "unit": "nM"}, {"measurement": "IC50", "setting": "[2]", "value": 0.47, "unit": "nM"}]}]}
